Patent US20240382475A1, “Quinazoline Derivative, Or Preparation Method Therefor And Use Thereof” (Zhejiang Hisun Pharmaceutical Co., Ltd., priority 2021, published 2024)

Legend:
OCI-AML5 cells = experiment: Inhibition of OCI-AML5 cell proliferation (CellTiter-Glo); type: cell-based; settings: Homo sapiens, OCI-AML-5; OCI-AML5 cells (SOS1 N233Y mutation), 120 hours
Procedure, shortened: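 OCI-AML5 cells (SOS1 N233Y), 1,000 per well, treated after overnight culture with compound at final 10000 nM to 0.15 nM for 120 hours at 37° C, 5% CO2. Viability read by CellTiter-Glo luminescence.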

KRAS-G12C/SOS1 = molecular target: T1, KRAS-G12C/SOS1 (Homo sapiens, UniProt Q07889); experiment: Blocking the binding of KRAS G12C protein to SOS1 (Cisbio KRAS-G12C/SOS1 binding assay kit, TR-FRET); settings: Tag1-SOS1 and Tag2-KRAS-G12C, TR-FRET 665/620; read-out: IC50 (nM) Inhibition of KRAS-G12C/SOS1 binding
T1 construct: purchased Cisbio 63ADK000CB16PEG
T1 sequence (Q07889 1-1333): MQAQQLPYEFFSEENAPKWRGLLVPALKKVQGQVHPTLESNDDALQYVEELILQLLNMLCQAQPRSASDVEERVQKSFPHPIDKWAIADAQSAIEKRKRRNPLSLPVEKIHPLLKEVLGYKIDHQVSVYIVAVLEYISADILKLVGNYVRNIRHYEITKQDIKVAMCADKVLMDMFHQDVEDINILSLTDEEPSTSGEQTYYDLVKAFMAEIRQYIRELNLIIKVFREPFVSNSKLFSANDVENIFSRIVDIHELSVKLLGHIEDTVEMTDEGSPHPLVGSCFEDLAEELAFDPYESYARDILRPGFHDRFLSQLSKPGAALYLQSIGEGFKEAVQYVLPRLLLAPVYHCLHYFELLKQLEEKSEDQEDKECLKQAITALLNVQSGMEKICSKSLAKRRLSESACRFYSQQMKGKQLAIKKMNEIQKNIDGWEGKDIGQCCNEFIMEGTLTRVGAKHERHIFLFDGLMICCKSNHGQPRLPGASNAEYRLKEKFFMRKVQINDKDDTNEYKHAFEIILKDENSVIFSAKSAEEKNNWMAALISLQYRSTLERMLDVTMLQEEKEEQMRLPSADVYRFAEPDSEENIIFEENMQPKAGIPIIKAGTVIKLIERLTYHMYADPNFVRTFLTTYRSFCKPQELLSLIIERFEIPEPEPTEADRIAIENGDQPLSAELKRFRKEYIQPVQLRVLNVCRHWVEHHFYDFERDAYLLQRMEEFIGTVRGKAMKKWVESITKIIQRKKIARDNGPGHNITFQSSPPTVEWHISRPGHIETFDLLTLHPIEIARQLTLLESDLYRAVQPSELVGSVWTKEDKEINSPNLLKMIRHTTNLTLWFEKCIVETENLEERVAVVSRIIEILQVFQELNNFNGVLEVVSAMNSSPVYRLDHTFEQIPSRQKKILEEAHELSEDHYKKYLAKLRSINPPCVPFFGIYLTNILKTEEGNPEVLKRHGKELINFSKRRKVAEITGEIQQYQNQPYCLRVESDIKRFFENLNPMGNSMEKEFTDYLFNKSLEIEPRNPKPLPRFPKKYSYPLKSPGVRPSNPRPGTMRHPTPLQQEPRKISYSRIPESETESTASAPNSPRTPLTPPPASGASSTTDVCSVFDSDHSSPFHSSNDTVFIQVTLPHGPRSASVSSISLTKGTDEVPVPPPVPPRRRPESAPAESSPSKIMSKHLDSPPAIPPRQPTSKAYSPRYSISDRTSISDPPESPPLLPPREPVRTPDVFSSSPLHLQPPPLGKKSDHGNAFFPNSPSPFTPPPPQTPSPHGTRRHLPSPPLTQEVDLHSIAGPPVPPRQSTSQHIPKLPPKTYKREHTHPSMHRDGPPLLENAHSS
Source text: The following method was used to determine the abilities of compounds of the invention to block the interaction of SOS1 with the KRAS G12C protein in vitro. KRAS-G12C/SOS1 BINDING ASSAY KITS (Art. No. 63ADK000CB16PEG) from Cisbio was used in this method. Please refer to the kit instruction for detailed experimental operations.
The experimental process can be briefly described as follows: diluent buffer (Art. No. 62DLBDDF) was used to prepare a working solution with a concentration of 5× for Tag1-SOS1 and Tag2-KRAS-G12C protein. The test compounds were dissolved in DMSO to prepare storage solutions of 10 mM, and then the solutions were diluted with dilution buffer for later use. First, 2 μL of the test compound (the final concentrations of the reaction system were 10000 nM-0.1 nM) was added to the well, then 4 μL of Tag1-SOS1 5× working solution and 4 μL of Tag2-KRAS-G12C 5× working solution were added, and the above mixture was centrifuged, mixed, and stood for 15 minutes; then 10 μL of premixed anti-Tag1-Tb^3+ and anti-Tag2-XL665 were added, and the mixture was incubated at room temperature for 2 hours; finally, a microplate reader was used in […] mode to measure the fluorescence intensity of each well emitting wavelengths of 620 nm and […] under the excitation wavelength of 304 nm, and the fluorescence intensity ratio 665/620 in each well was calculated. Compared with the fluorescence intensity ratio of a control group (0.1% DMSO), the percentage inhibition rates of the test compounds at each concentration were calculated, and the IC50 values of the compounds were obtained by performing nonlinear regression analysis with logarithmic values of the compound concentration-inhibition rate by GraphPad Prism 5 software, which was shown in Table 1.

Compound	IC50 (OCI-AML5 cells)	IC50 (KRAS-G12C/SOS1)
COc1cc2nc(C)nc(N[C@H](C)c3cccc(C#N)c3C)c2cc1N1CCOCC1 [Compound 1, (R)-3-(1-((7-methoxy-2-methyl-6-morpholinoquinazolin-4-yl)amino)ethyl)-2-methylbenzonitrile]	46.4 nM	26.2 nM
COc1cc2nc(C)nc(N[C@H](C)c3cccc(C#N)c3C)c2cc1N1CCN(C(C)=O)CC1 [Compound 2, (R)-3-(1-((6-(4-acetylpiperazin-1-yl)-7-methoxy-2-methylquinazolin-4-yl)amino)ethyl)-2-methylbenzonitrile]	8.4 nM	20.7 nM
COc1cc2nc(C)nc(N[C@H](C)c3cccc(C#N)c3C)c2cc1N1CCC2(CCOCC2)CC1 [Compound 4, (R)-3-(1-((7-methoxy-2-methyl-6-(3-oxa-9-azaspiro[5.5]undecan-9-yl)quinazolin-4-yl)amino)ethyl)-2-methylbenzonitrile]	6.3 nM	65.2 nM
COc1cc2nc(C)nc(N[C@H](C)c3cccc(C#N)c3C)c2cc1N1CCC2(CC1)COC2 [Compound 5, (R)-3-(1-((7-methoxy-2-methyl-6-(2-oxa-7-azaspiro[3.5]nonan-7-yl)quinazolin-4-yl)amino)ethyl)-2-methylbenzonitrile]	11.3 nM	28 nM
COc1cc2nc(C)nc(N[C@H](C)c3cccc(C#N)c3C)c2cc1N1CCC2(CCN(C)C2=O)CC1 [Compound 7, (R)-3-(1-((7-methoxy-2-methyl-6-(2-methyl-1-oxo-2,8-diazaspiro[4.5]decan-8-yl)quinazolin-4-yl)amino)ethyl)-2-methylbenzonitrile]	2.7 nM	35.7 nM
COc1cc2nc(C)nc(N[C@H](C)c3cccc(C#N)c3C)c2cc1N1CCC(C#N)CC1 [Compound 8, (R)-1-(4-((1-(3-cyano-2-methylphenyl)ethyl)amino)-7-methoxy-2-methylquinazolin-6-yl)piperidine-4-carbonitrile]	12 nM	62 nM
COc1cc2nc(C)nc(N[C@H](C)c3cccc(C#N)c3C)c2cc1N1CCC(C)(O)CC1 [Compound 11, (R)-3-(1-((6-(4-hydroxy-4-methylpiperidin-1-yl)-7-methoxy-2-methylquinazolin-4-yl)amino)ethyl)-2-methylbenzonitrile]	13.6 nM	39.5 nM
COc1cc2nc(C)nc(N[C@H](C)c3cccc(C#N)c3C)c2cc1N1CCC2(CC1)CN(C(C)=O)C2 [Compound 19, (R)-3-(1-((6-(2-acetyl-2,7-diazaspiro[3.5]nonan-7-yl)-7-methoxy-2-methylquinazolin-4-yl)amino)ethyl)-2-methylbenzonitrile]	16.4 nM	22.3 nM
